Results on eight compounds are retold here after patent publication US20240228465A1, “SUBSTITUTED PYRIDINE N-OXIDE DERIVATIVES USEFUL AS A FACTOR XIA INHIBITORS” (Janssen Pharmaceutica NV, priority 2021, published 2024).

The target in one assay is Factor XIa (Homo sapiens, UniProt P03951). The assay is described as follows: Factor XIa inhibition assay utilizing a fluorophore-quencher pair peptide substrate (FLINT). The format is biochemical. The conditions noted are these: kinetic reads at 5 min intervals over 30 min; 30 min preincubation; read-out: FXIa (KIN) IC50. From the text:
Biological Example 1: Factor XIa Inhibition Assay Utilizing a Fluorophore-Quencher Pair Peptide Substrate
A fluorescence intensity (FLINT) based assay was used to monitor inhibition of Factor XIa. The peptide substrate, 5Fam-KLTRAETV-K5Tamra (purchased from New England Peptide) was chosen based on the […]. Conversion of zymogen […]. The custom peptide used in this assay was based on the Arg146 cleavage site of FXI. The peptide substrate was designed with a fluorophore-quencher pair, where the fluorescence is quenched until FXIa cleaves the 8-mer peptide after the Arg residue. The substrate KM was fit to a substrate inhibition model whereby kcat=0.86 s^−1, KM=12.4 μM, Ki=61.6 μM with an enzymatic efficiency, and kcat/KM=69523 M^−1s^−1.
The Factor XIa FLINT assay was used with the following 5Fam-KLTRAETV-K5Tamra assay buffer: 50 mM Tris, pH 7.5, 100 mM NaCl, 5 mM CaCl2, 0.1 mg/mL BSA, 0.03% CHAPS. Assay buffer was prepared by mixing all ingredients fresh. 5Fam-KLTRAETV-K5Tamra peptide substrate was first prepared at 10 mM in 100% DMSO, then diluted to 3 mM in 100% DMSO. Assay buffer was then added directly to the 3 mM stock of substrate to prepare the 30 μM 2× working concentration (15 μM final concentration). The 2× Factor XIa stock solution was prepared by diluting 6.562 μM stock in 1× assay buffer for a […].
Test compound(s) were run in an 11-point, 3-fold serial dilution with a final top compound concentration of 100 nM. Final DMSO in assay was 2%. FXIa was preincubated with compound for 30-minutes and then substrate was added to initiate the reaction. The assay was run with either end point (EP) reads at 30 min or kinetic (KIN) reads at 5 min intervals over 30 minutes. The time course was linear using 100 μM FXIa greater than 30 minutes. More specifically, the assay was run as follows: • 100 nL of 0.01 mM test compound was dispensed into black 384-well non-binding Greiner BioOne 784900 plate for 0.1 μM final concentration; • 5 μL of 1× assay buffer was dispensed to column 24 (low control) and 5 μL 2× Factor XIa solution was dispensed to columns 1-23 (column 23 high control); • the plate was centrifuged with a “cover” plate at 500 rpm for 1 min • the plate was pre-incubated for 30 minutes at room temperature with plate covered; • 5 μL of 2× 5Fam-KLTRAETV-K5Tamra peptide substrate was dispensed into the entire plate, columns 1-24; • the plate was centrifuged with a “cover” plate at 500 rpm for 1 min; • the plate was read monitoring fluorescence intensity on the BMG PHERAStar at room temperature, using fluorescence module 485 nm/520 nm.
(§1) Percent inhibition (IC50) curves were generated per compound tested, and data was analyzed using a 4-parameter logistic fit using GeneData Screener. The relative fluorescence unit (RFU) values were normalized to percent inhibition using the following equation:
[formula] • where LC—low control=mean signal of no Factor XIa or 100% inhibition of Factor XIa; HC—high control=mean signal of Factor XIa+5Fam-KLTRAETV-K5Tamra peptide substrate with DMSO only.
(§2) An 11-point dose response curve for the test compound(s) was generated using GENDATA to determine IC50 value based on the following equation:
[formula] • where Y is the % inhibition in the presence of X inhibitor concentration, Top=high control=mean signal of Factor XIa+5Fam-KLTRAETV-K5Tamra peptide substrate with DMSO only; Bottom=low control—mean signal of no Factor XIa or 100% inhibition of Factor XIa; HillSlope—Hill coefficient; and IC50=concentration of compound with 50% inhibition in relation to top/high control.
Representative compounds of formula (I) of the present invention were tested according to the procedure described in Biological Example 1 and Biological Example 2 above, with results as listed in Table 3, below. […]

The target of a further assay is human plasma kallikrein (Homo sapiens, UniProt P03952). The assay can be described thus: Kallikrein inhibition assay utilizing a quenched AMC peptide substrate (FLINT). Format: biochemical. The settings on record: read-out: Kallikrein (KIN) IC50. As to the method: Biological Example 2: Kallikrein Inhibition Assay Utilizing a Quenched AMC Peptide Substrate
human plasma kallikrein, sequence (P03952 391-638 limits assumed): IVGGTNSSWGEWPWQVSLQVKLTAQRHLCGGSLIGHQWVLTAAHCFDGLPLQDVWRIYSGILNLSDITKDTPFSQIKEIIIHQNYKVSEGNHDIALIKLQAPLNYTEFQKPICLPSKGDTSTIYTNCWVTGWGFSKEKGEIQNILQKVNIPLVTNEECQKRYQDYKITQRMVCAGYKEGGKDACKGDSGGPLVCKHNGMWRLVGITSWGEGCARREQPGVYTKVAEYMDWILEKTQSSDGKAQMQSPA
human plasma kallikrein, sequence (P03952 20-390 partner limits assumed): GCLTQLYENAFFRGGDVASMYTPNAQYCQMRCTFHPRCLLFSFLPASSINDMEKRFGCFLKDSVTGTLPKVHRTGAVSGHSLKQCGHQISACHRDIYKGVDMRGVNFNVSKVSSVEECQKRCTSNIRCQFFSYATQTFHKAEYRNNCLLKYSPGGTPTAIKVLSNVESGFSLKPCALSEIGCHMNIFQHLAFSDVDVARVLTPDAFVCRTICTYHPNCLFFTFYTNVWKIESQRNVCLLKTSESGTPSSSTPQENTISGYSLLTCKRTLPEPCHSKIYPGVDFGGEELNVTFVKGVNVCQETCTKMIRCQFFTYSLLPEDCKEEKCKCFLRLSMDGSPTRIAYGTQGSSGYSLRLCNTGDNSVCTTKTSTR
A fluorescence intensity (FLINT) based assay was used to monitor inhibition of human plasma kallikrein. The peptide substrate, Z-Gly-Pro-Arg-AMC (Purchased from Bachem; Catalog #I-1150) was chosen based on its relatively low KM for kallikrein which enables running the assay at lower substrate concentrations to control background fluorescence. The kinetic parameters for this substrate were determined by fitting titration data to the Michaelis-Menten equation yielding a KM=40 μm, kcat=0.76 s^−1, and kcat/KM=18932 M^−1s^−1.
The Kallikrein FLINT assay was used with the following Z-Gly-Pro-Arg-AMC assay buffer: 50 mM Tris, pH 7.5, 100 mM NaCl, 5 mM CaCl2, 0.1 mg/mL BSA, 0.03% CHAPS. Assay buffer was prepared by mixing all ingredients fresh. 2× Z-Gly-Pro-Arg-AMC peptide substrate was prepared by diluting 10 mM stock into 1× assay buffer for a 100 μM working concentration (50 μM final concentration). The 2× kallikrein stock solution was prepared by diluting 14.76 μM stock in 1× assay buffer for a 4 nM working stock solution (2 nM final concentration).
Test compound(s) were run in an 11-point, 3-fold serial dilution with a final top compound concentration of 1 μM. Final DMSO in assay was 2%. Plasma kallikrein was pre-incubated for 30-minute with compound and then 50 μM substrate was added to initiate the reaction. The assay was run with either end point (EP) reads at 30 min or kinetic (KIN) reads at 5 min intervals over 30 minutes. The time course was linear using 2 nM kallikrein greater than 30 minutes. More specifically, the assay was run as follows: • 100 nL of 0.1 mM test compound was dispensed into black 384-well non-binding Greiner BioOne 784900 plate for 1 μM final concentration; • 5 μL of 1× assay buffer was dispensed to columns 24 (low control) and 5 μL 2× human kallikrein enzyme solution was dispensed to columns 1-23 (column 23 high control); • the plate was centrifuged with a “cover” plate at 500 rpm for 1 min • the plate was pre-incubated for 30 minutes at room temperature with plate covered; • 5 μL of 2× Z-Gly-Pro-Arg-AMC peptide substrate was dispensed into the entire plate, columns 1-24; • the plate was centrifuged with a “cover” plate at 500 rpm for 1 min; • the plate was read monitoring fluorescence intensity on the BMG PHERAStar at room temperature, using fluorescence module 340 nm/440 nm.
as §1
% inhibition=((HC−LC)−(compound−LC)/(HC−LC))*100 • where LC—low control=mean signal of human kallikrein enzyme or 100% inhibition of human kallikrein enzyme; HC—high control=mean signal of Factor XIa+Z-Gly-Pro-Arg-AMC peptide substrate with DMSO only.
as §2
Y=Bottom+(Top−Bottom)/(1+10^((log IC50−X)*HillSlope)) • where Y is the % inhibition in the presence of X inhibitor concentration, Top=high control=mean signal of human kallikrein enzyme+Z-Gly-Pro-Arg-AMC peptide substrate with DMSO only; Bottom=low control—mean signal of no human kallikrein enzyme or 100% inhibition of human kallikrein enzyme; HillSlope—Hill coefficient; and IC50=concentration of compound with 50% inhibition in relation to top/high control.
Representative compounds of formula (I) of the present invention were tested according to the procedure described in Biological Example 1 and Biological Example 2 above, with results as listed in Table 3, below. Results listed in the (ER) column were measured using endpoint reads where a single fluorescence reading was measured for each well at a 30 min timepoint. […]

Where [1] appears, read: kinetic reads at 5 min intervals over 30 min, 30 min preincubation.

Read-outs that look alike come from different tables or passages of the source.

Factor XIa, sequence (P03951 388-625 limits assumed): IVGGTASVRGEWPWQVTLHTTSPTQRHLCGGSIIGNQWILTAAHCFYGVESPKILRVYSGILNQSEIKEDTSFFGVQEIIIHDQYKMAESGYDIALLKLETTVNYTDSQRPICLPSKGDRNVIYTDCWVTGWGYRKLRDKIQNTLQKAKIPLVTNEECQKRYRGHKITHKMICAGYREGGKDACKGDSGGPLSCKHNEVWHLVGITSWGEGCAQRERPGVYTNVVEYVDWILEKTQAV
Factor XIa, sequence (P03951 19-387 partner limits assumed): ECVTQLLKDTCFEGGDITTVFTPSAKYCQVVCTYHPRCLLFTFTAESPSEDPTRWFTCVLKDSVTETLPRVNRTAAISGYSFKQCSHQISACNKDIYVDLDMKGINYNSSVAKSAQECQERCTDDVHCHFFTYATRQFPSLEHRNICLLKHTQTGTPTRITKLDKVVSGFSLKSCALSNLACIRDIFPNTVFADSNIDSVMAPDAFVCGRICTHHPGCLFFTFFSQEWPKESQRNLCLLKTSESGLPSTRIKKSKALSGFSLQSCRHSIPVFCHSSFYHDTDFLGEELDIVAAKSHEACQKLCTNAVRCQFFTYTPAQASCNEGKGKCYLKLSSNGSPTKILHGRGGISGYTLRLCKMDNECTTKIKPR

As to `[O-][n+]1cc(-c2c(-n3cc(C(F)(F)F)nn3)ccc(Cl)c2F)ccc1[C@@H](CCOC(F)F)n1cnc(-c2ncnn2C(F)F)c1` [M7, (R)-5-(3-Chloro-2-fluoro-6-(4-(trifluoromethyl)-1H-1,2,3-triazol-1-yl)phenyl)-2-(3-(difluoromethoxy)-1-(4-(1-(difluoromethyl)-1H-1,2,4-triazol-5-yl)-1H-imidazol-1-yl)propyl)pyridine 1-oxide], the IC50 – broadly, the midpoint of a concentration-inhibition curve – on Factor XIa is about 0.033 µM; on human plasma kallikrein (setting [1]), 0.338 µM.
As to `Cn1nncc1-c1cn([C@@H](CCOC(F)F)c2ccc(-c3c(-n4cc(C(F)(F)F)nn4)ccc(Cl)c3F)c[n+]2[O-])cn1` [M8, (S)-5-(3-Chloro-2-fluoro-6-(4-(trifluoromethyl)-1H-1,2,3-triazol-1-yl)phenyl)-2-(3-(difluoromethoxy)-1-(4-(1-methyl-1H-1,2,3-triazol-5-yl)-1H-imidazol-1-yl)propyl)pyridine 1-oxide], the IC50 is over 0.2 µM on Factor XIa and over 20 µM at human plasma kallikrein (kinetic reads, unit μM).
Turning to `Cn1ncnc1-c1cn(C(CCOC(F)F)c2ccc(-c3c(-n4cc(C(F)(F)F)nn4)ccc(Cl)c3F)c[n+]2[O-])cn1` (stereo not shown) [M9, 5-(3-Chloro-2-fluoro-6-(4-(trifluoromethyl)-1H-1,2,3-triazol-1-yl)phenyl)-2-(3-(difluoromethoxy)-1-(4-(1-methyl-1H-1,2,4-triazol-5-yl)-1H-imidazol-1-yl)propyl)pyridine 1-oxide], the figures for the half-maximal inhibitory concentration (IC50) on Factor XIa and on human plasma kallikrein (setting [1]) were 0.0043 µM and 0.543 µM, respectively.
For `Cn1nncc1-c1cn([C@H](CCOC(F)F)c2ccc(-c3c(-n4cc(C(F)(F)F)nn4)ccc(Cl)c3F)c[n+]2[O-])cn1` [M10, (R)-5-(3-Chloro-2-fluoro-6-(4-(trifluoromethyl)-1H-1,2,3-triazol-1-yl)phenyl)-2-(3-(difluoromethoxy)-1-(4-(1-methyl-1H-1,2,3-triazol-5-yl)-1H-imidazol-1-yl)propyl)pyridine 1-oxide], in that order: 0.0005 µM and 0.0489 µM.
On to `Cn1nncc1-c1cn([C@@H](CCOC(F)F)c2ccc(-c3c(-n4cc(Cl)nn4)ccc(Cl)c3F)c[n+]2[O-])cn1` [M11, (S)-5-(3-Chloro-6-(4-chloro-1H-1,2,3-triazol-1-yl)-2-fluorophenyl)-2-(3-(difluoromethoxy)-1-(4-(1-methyl-1H-1,2,3-triazol-5-yl)-1H-imidazol-1-yl)propyl)pyridine 1-oxide], for which the IC50 on Factor XIa is over 0.2 µM; on human plasma kallikrein (kinetic reads, unit μM) it was over 20 µM.
Consider `Cn1nncc1-c1cn([C@H](CCOC(F)F)c2ccc(-c3c(-n4cc(Cl)nn4)ccc(Cl)c3F)c[n+]2[O-])cn1` [M12, (R)-5-(3-Chloro-6-(4-chloro-1H-1,2,3-triazol-1-yl)-2-fluorophenyl)-2-(3-(difluoromethoxy)-1-(4-(1-methyl-1H-1,2,3-triazol-5-yl)-1H-imidazol-1-yl)propyl)pyridine 1-oxide], for which the IC50 on Factor XIa worked out at 0.0003 µM; at human plasma kallikrein (setting [1]), 0.0159 µM.
`[O-][n+]1cc(-c2c(-n3cnnn3)ccc(Cl)c2F)ccc1[C@H](CCOC(F)F)n1cnc(-c2cnnn2C(F)F)c1` [M13, (S)-5-(3-Chloro-2-fluoro-6-(1H-tetrazol-1-yl)phenyl)-2-(3-(difluoromethoxy)-1-(4-(1-(difluoromethyl)-1H-1,2,3-triazol-5-yl)-1H-imidazol-1-yl)propyl)pyridine 1-oxide]: the IC50 is over 0.2 µM on Factor XIa and over 2 µM on human plasma kallikrein (kinetic reads, unit μM).
Regarding `[O-][n+]1cc(-c2c(-n3cnnn3)ccc(Cl)c2F)ccc1[C@@H](CCOC(F)F)n1cnc(-c2cnnn2C(F)F)c1` [M14, (R)-5-(3-Chloro-2-fluoro-6-(1H-tetrazol-1-yl)phenyl)-2-(3-(difluoromethoxy)-1-(4-(1-(difluoromethyl)-1H-1,2,3-triazol-5-yl)-1H-imidazol-1-yl)propyl)pyridine 1-oxide], the IC50 is 0.0005 µM at Factor XIa and 0.029 µM at human plasma kallikrein (setting [1]).
